Data on 83 molecules can be found in PubChem BioAssay AID1645865 (Buhrlage Lab, Dana-Farber Cancer Institute and Novartis …, 2021).

Calls of active or inactive are those of the source.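 How the source made its calls: active means maximal inhibition of the USP30 enzyme reaching 30% or more across the dose series; inactive means the rest.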

Broadly, the IC50 is the concentration needed to halve the response being measured.

In the experiment the target is Ubiquitin carboxyl-terminal hydrolase 30 (Homo sapiens) (UniProt Q70CQ3). The experiment in a line: inhibitors of ubiquitin-specific protease 30 deubiquitylating enzyme, concentration dependence, in vitro biochemical, validation of primary hits (AID 1645865). The conditions noted are these: purified USP30, Ub-rhodamine cleavage, fluorescence, 2 h.
Sequence of Ubiquitin carboxyl-terminal hydrolase 30 (Homo sapiens) (Q70CQ3 whole entry, looked up): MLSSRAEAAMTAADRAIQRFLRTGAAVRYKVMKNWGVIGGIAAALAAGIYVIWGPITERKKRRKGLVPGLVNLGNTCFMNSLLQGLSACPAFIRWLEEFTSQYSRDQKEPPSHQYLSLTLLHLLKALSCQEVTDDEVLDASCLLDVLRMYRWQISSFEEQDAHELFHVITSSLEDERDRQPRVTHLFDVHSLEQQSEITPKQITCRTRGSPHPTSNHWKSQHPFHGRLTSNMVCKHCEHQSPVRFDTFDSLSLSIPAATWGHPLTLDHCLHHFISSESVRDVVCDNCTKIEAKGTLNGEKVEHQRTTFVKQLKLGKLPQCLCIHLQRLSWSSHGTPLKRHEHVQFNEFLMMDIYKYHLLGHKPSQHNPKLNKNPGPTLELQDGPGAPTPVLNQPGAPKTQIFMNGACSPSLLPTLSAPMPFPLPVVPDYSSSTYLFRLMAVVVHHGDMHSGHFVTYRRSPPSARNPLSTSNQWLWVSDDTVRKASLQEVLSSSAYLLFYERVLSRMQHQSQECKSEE
Take `CN=C(N)NCCC/C=C/CCCC(C)CC(C)C1OC(=O)/C=C/C(C)C(O)CC(O)C(C)C(O)CCC(C)C(O)CC2(O)OC(CC(OC(=O)CC(=O)O)CC(O)CC(O)C(C)C(O)/C=C/C1C)CC(O)C2O` (stereo not drawn): the IC50 is 27.5 µM.

For the molecule `Cc1ccccc1-c1noc(-c2ccccc2OCC(=O)NC(C)C)n1`, the IC50 was > 50 µM (inactive).

As for `CC1Oc2cc3c(-c4c(O)cc(O)c5c(O)c6c(cc45)OC(C)C(C)C6=O)c(O)cc(O)c3c(O)c2C(=O)C1C` (stereo not drawn), the IC50 was 4.98 µM.

As to `O=C(NCc1ccc(-c2nc3cnccc3o2)cc1)c1ccccc1F`, the IC50 is 17.5 µM.

As for `COCCn1ccc2nc(C)c(C(=O)Nc3ccc4c(c3)OCCO4)cc2c1=O`, the IC50 is 45.2 µM.

Consider `Cn1c(=O)c2c(nc3n(-c4ccccc4F)c(-c4ccccc4)cn23)n(C)c1=O`, for which the IC50 is > 50 µM (inactive).

As to `CC(OC(=O)c1c2c(nc3ccccc13)CCCCC2)C(=O)Nc1ccc2ccccc2c1` (stereo not drawn), the IC50 was 2.65 µM.

Consider `COc1ccc(C(=O)Nc2ccc3c(c2)C(=O)N(C)c2ccccc2O3)cc1`, for which the IC50 was > 50 µM (inactive).

`Cc1cccc(NC(=O)Cn2cnc(-c3noc(-c4ccccc4)n3)c2)c1C`: the IC50 was 1.24 µM.

For the molecule `Cc1ccc(O)c(-c2cc(C(=O)Nc3ccccc3Cl)[nH]n2)c1`, the IC50 is 5.93 µM.

For `c1ccc2c(c1)ccc1nnc(-c3ccc4c(c3)OCO4)n12`, the IC50 was > 50 µM (inactive).

As for `Cc1nnc(NCc2cccnc2)c2c1nnn2Cc1ccccc1Cl`, the IC50 was 28.3 µM.

Take `COc1ccc(CCNC(=O)c2c(N)n(-c3cccc(Cl)c3)c3nc4ccccc4nc23)cc1`: the IC50 was > 50 µM (inactive).

For `O=C(Nc1ccc(F)c(Cl)c1)c1ccc(N2CCCCS2(=O)=O)cc1Cl`, the IC50 was > 50 µM (inactive).

Take `COc1ccccc1NC(=O)CSC1=NC2(CCCCC2)Nc2ccccc21`: the IC50 was > 50 µM (inactive).

Regarding `O=C(COc1ccc2oc3c(c2c1)CCCC3)Nc1ccccn1`, the IC50 was 30.6 µM.

Consider `Cc1noc(-c2cc(=O)n(CC(=O)NCc3ccccc3)c3ccccc23)n1`, for which the IC50 is > 50 µM (inactive).

Consider `CCOc1ccc2cc3c(nc2c1)OC(=O)N(Cc1ccc(C)o1)C3`, for which the IC50 is 1.29 µM.

`CC1(C(=O)NCc2ccccc2)Cn2c(cc3ccccc32)C(=O)N1Cc1ccccc1` (stereo not drawn): the IC50 was > 50 µM (inactive).

Regarding `O=C1C/C(=C\c2cccc(Cl)c2)Cc2ccccc21`, the IC50 is > 50 µM (inactive).

For `O=C(CCCCn1c(=O)c2ccccc2n(CC(=O)Nc2ccc(F)c(Cl)c2)c1=O)NCc1ccco1`, the IC50 is > 50 µM (inactive).

Regarding `Cc1cc(N2CCN(c3ncccn3)CC2)nc2ccc(NC(=O)c3ccncc3)cc12`, the IC50 is 2.68 µM.

`CC(=O)N1CCc2cc(S(=O)(=O)NC(Cc3ccccc3)C(=O)Nc3cccc(Cl)c3C)ccc21` (stereo not drawn): the IC50 was 3.47 µM.

With `O=c1cc(CNc2ccc(Br)cc2)nc2nc(-c3ccccc3)[nH]n12`, the IC50 is > 50 µM (inactive).

Consider `COc1ccc(C(=O)Nc2ccc(S(=O)(=O)N3CCCCC3)cc2)cc1`, for which the IC50 is > 50 µM (inactive).

Regarding `COc1cc(C(=O)NC(Cc2ccccc2)c2nc3ccccc3[nH]2)cc(OC)c1OC` (stereo not drawn), the IC50 is 2.06 µM.

As to `Cc1ccc(NC2=NC(c3ccco3)n3c(nc(C)cc3=O)N2)c(C)c1` (stereo not drawn), the IC50 was 2.87 µM.

On to `O=C(C(c1ccccc1)c1ccccc1)N1CCC(c2nc3c(nnn3Cc3c(F)cccc3Cl)c(=O)[nH]2)CC1`, for which the IC50 was 11.5 µM.

As to `COC1=CC(=O)c2c(O)c3c(c(C)c2C1=O)C[C@@]1(O)[C@H](O[C@H]2CC[C@H](O[C@H]4C[C@@](C)(O)[C@H](OC(=O)c5c(C)ccc(C)c5O)[C@H](C)O4)[C@@H](C)O2)C(=O)C(C(C)=O)=C(O)[C@@]1(O)C3=O`, the IC50 was 4.74 µM.

As to `CN1C(=O)[C@@]23C[C@]4([C@@]56C[C@]78SS[C@](CO)(C(=O)N7[C@@H]5Nc5ccccc56)N(C)C8=O)c5ccccc5N[C@@H]4N2C(=O)[C@]1(CO)SS3`, the IC50 was 0.266 µM.

In the case of `O=C(NCc1ccc2c(c1)OCO2)c1cc2c(s1)-c1ccccc1OC2`, the IC50 is 3.58 µM.

For the molecule `COc1cc2c(cc1OC)-c1cc(Nc3ccc(Br)cc3)nc(=O)n1CC2`, the IC50 is 0.939 µM.

Turning to `COc1cccc(C(=O)NCC(=O)Nc2nc3ccccc3[nH]2)c1`, the IC50 was 34.3 µM.

For the molecule `O=C(CNC(=O)c1cccc(F)c1)Nc1nc2ccccc2[nH]1`, the IC50 was 21.7 µM.

On to `CCc1c(C)c(C#N)c2nc3ccccc3n2c1N1CCN(C2CCCC2)CC1`, for which the IC50 was 1.7 µM.

For `Cc1cc(C(=O)CSc2nc3ccccc3[nH]2)c(C)n1Cc1ccco1`, the IC50 is > 50 µM (inactive).

As for `O=C(COc1cc([N+](=O)[O-])cc2cccnc12)NCCC1=CCCCC1`, the IC50 was 28.3 µM.

In the case of `Cc1cc(N2CCOCC2)nc2ccc(NC(=O)CCC(=O)Nc3ccc(F)cc3)cc12`, the IC50 was 10.3 µM.

For the molecule `CCOC(=O)c1cnc(C(F)(F)F)nc1Sc1n[nH]c(-c2cccs2)n1`, the IC50 is > 50 µM (inactive).

For `O=c1c2cnc3nc(-c4cccnc4)nn3c2ccn1CCc1ccccc1`, the IC50 was > 50 µM (inactive).

`Cc1cccc(C(=O)Nc2ccc3c(c2)nc(CSc2nccc(C)n2)n3C)c1`: the IC50 is > 50 µM (inactive).

Regarding `CCOC(=O)C1C(c2ccc(Br)cc2)C2(C(=O)c3ccccc3C2=O)C2C=Cc3ccccc3N12` (stereo not drawn), the IC50 was > 50 µM (inactive).

Consider `COc1ccc(CCNC(=O)c2ccc3ccccc3c2)cc1OC`, for which the IC50 was > 50 µM (inactive).

Take `N#Cc1c(-c2cccs2)cc(-c2cccs2)[nH]c1=O`: the IC50 is > 50 µM (inactive).

As to `NS(=O)(=O)c1ccc(NC(=O)Cn2cnc3cc([N+](=O)[O-])ccc3c2=O)cc1`, the IC50 was > 50 µM (inactive).

For the molecule `Cc1cc(Cl)ccc1Nc1nc(Nc2cccc(F)c2)nc2nccnc12`, the IC50 was > 50 µM (inactive).

For the molecule `COc1cccc(CN2CCc3nc4nc(C)ccc4cc3C2)c1`, the IC50 is > 50 µM (inactive).

For `Cc1c(C)n(-c2ccc(Br)cn2)c2ncnc(NCCCO)c12`, the IC50 was 25.4 µM.

Consider `COc1ccccc1NS(=O)(=O)c1cccc(NC(=O)CCc2nc3ccccc3s2)c1`, for which the IC50 is 4.01 µM.

In the case of `O=C(Cc1noc2ccccc12)NCC(=O)Nc1ccc(Cl)cc1`, the IC50 is 21.6 µM.

With `COc1ccc(NC(=O)CNC(=O)c2ccc3nc(-n4cccc4)sc3c2)cc1`, the IC50 was 1.86 µM.

`CO[C@H]1CC[C@H](O)c2c1oc1c3c4c(c(O)c1c2=O)-c1c(cc2c(Cl)c(C)n(N)c(=O)c2c1O)C[C@@H]4OCO3`: the IC50 was 47.3 µM.

For the molecule `CCC(=O)Nc1ccc(-c2nc(Cn3cc(C)cn3)c(C)o2)cc1`, the IC50 was > 50 µM (inactive).

With `CC(NC(=O)c1ccccc1)c1nc2ccccc2n1CC(=O)Nc1ccc2c(c1)OCO2` (stereo not drawn), the IC50 was 2.06 µM.

For the molecule `Cc1c(Cl)cccc1NC(=O)Cn1c(=O)c2ccccc2n2nncc12`, the IC50 is > 50 µM (inactive).

As to `Cc1cc(-n2c(C)cc(-c3csc(N)n3)c2C)no1`, the IC50 is > 50 µM (inactive).

On to `CCn1ccc2c(cc(C(=O)Nc3ccccc3F)n2C)c1=O`, for which the IC50 was > 50 µM (inactive).

As for `O=C(Cc1noc2ccccc12)N1CCN(c2ccc([N+](=O)[O-])cc2)CC1`, the IC50 is > 50 µM (inactive).

On to `CC(=O)O[C@H]1[C@]2(O)C[C@]34SS[C@](CO)(C(=O)N3[C@@H]2C[C@@]12O[C@@H](C)C(C)(C)C2=O)N(C)C4=O`, for which the IC50 is 2.25 µM.

For `COc1cc2c(c3oc4cccc(O)c4c(=O)c13)C1C=COC1O2` (stereo not drawn), the IC50 was > 50 µM (inactive).

With `Cc1cccc(NC(=O)CSc2nnc(-c3n[nH]c4c3CCC4)n2N)c1`, the IC50 was 25.6 µM.

Turning to `COc1cc(N)c(Cl)cc1C(=O)OCC(=O)c1ccc2c(c1)OCCO2`, the IC50 is > 50 µM (inactive).

Consider `COc1ccc(C2/C(=C(\O)c3ccccc3)C(=O)C(=O)N2c2nc3ccc(F)cc3s2)cc1` (stereo not drawn), for which the IC50 was 43.1 µM.

Turning to `Cc1ccccc1NC(=O)c1nc(-c2cn(Cc3ccc(F)cc3)nn2)no1`, the IC50 was 3.46 µM.

For `COc1ccc(NC(=O)C2CCN(c3cncnc3N(C)C)CC2)cc1OC`, the IC50 is > 50 µM (inactive).

On to `CCc1ccc(NC(=O)CN=C2NS(=O)(=O)C(c3ccc(CC)cc3)=C2C)cc1`, for which the IC50 is 4.67 µM.

In the case of `Cc1cc(C)nc(-n2nc(C)c3c2NC(=O)CSC3c2ccc(F)cc2F)n1` (stereo not drawn), the IC50 was 31.3 µM.

With `NC(=O)c1ccc(NC(=O)Cc2cc(-c3ccc(Cl)cc3)on2)cc1`, the IC50 was > 50 µM (inactive).

Regarding `Fc1ccccc1N1CCN(c2ncc3c(n2)CCN(Cc2ccccn2)C3)CC1`, the IC50 is > 50 µM (inactive).

Take `NC(=O)c1nc(-c2cccc(F)c2)nc2c1[nH]c(=O)n2C1CCCCC1`: the IC50 is 3.78 µM.

Regarding `Cc1ccc(NC(=O)c2cc(-c3cccnc3)n(-c3ccccc3)n2)nc1`, the IC50 is 32.3 µM.

For the molecule `COc1ccc(CCN2COc3c(cc(Cl)c4cccnc34)C2)cc1OC`, the half-maximal inhibitory concentration (IC50) was 13.6 µM.

Consider `O=C(Nc1ccccc1-c1nc2ccccc2[nH]1)c1sc2ccccc2c1Cl`, for which the IC50 is 1.76 µM.

Consider `COC(=O)[C@]1(O)O[C@@]2(C(=O)OC)c3c(oc4cc(C)cc(O)c4c3=O)[C@H]3c4c(oc5cc(C)cc(O)c5c4=O)C[C@H]1[C@H]32`, for which the IC50 was > 50 µM (inactive).

For the molecule `CC(=O)Nc1ccc(-n2cnc(C(=O)NCc3ccc(C)cc3)c2)nc1`, the IC50 is 21.2 µM.

As to `CCCCCCCCCC(CCCCCCCCCC(=O)O)O[C@H]1O[C@@H](COC(C)=O)[C@H](O)[C@@H](O)[C@H]1OC(=O)CC(=O)O` (stereo partly drawn), the IC50 is 21.7 µM.

Consider `O=C(NCCCN1CCc2ccccc2C1)c1cc2c(s1)CS(=O)(=O)C2`, for which the IC50 is > 50 µM (inactive).

For the molecule `Cc1cccc(NC(=O)CN2C(=O)COc3cc(S(=O)(=O)N4CCCC4)ccc32)c1C`, the IC50 is 21.4 µM.

`O=C(c1ccc2occc2c1)N1CCC(S(=O)(=O)c2ccc(-c3ccco3)cc2)CC1`: the IC50 was > 50 µM (inactive).

As for `O=C(NCc1ccc(CN2CCCC2)cc1)c1cc2ccccc2[nH]c1=O`, the IC50 was > 50 µM (inactive).

For the molecule `Cc1ccc(NC(=O)c2cnc3c(c2)c(=O)n(C)c(=O)n3C)cc1`, the IC50 is 1.71 µM.

On to `CCN(CCCNC(=O)c1ccc(Cn2c(=O)[nH]c3ccccc3c2=O)cc1)c1ccccc1`, for which the IC50 was 6.5 µM.

Take `COc1ccccc1NC(=O)Cn1cc(C(=O)c2ccc(C)cc2)c(=O)c2cc(Cl)ccc21`: the IC50 was 3.86 µM.
